Source: ChEMBL document CHEMBL1221313, “Synthesis of pyrrolomorphinan derivatives as kappa opioid agonists” (Bioorg Med Chem Lett, 2010)

Key:
[1] = biological target: Opioid receptor (mu and kappa) (Cavia porcellus) (UniProt P41144+P97266); test: Selectivity ratio of Ki for mu opioid receptor in guinea pig forebrain to Ki for kappa opioid receptor in guinea pig cerebellum; type: tissue-based
[2] = biological target: Kappa-type opioid receptor (Cavia porcellus, UniProt P41144); test: Displacement of [3H]U69593 from kappa opioid receptor in guinea pig cerebellum; type: tissue-based
Sequence of Kappa-type opioid receptor (P41144 whole entry): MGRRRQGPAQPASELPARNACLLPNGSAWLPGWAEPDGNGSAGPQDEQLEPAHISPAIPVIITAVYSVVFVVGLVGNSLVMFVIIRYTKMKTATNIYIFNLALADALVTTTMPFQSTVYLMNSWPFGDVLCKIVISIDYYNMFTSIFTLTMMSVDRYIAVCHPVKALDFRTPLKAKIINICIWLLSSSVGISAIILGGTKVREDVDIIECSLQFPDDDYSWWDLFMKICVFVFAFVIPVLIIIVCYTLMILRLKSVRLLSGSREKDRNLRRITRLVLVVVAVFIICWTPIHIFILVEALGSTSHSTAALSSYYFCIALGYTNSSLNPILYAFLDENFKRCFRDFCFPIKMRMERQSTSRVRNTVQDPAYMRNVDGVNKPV

[3] = Displacement of [3H]NTI from delta opioid receptor in guinea pig forebrain; design: species or system Cavia porcellus
Mu-type opioid receptor = Mu-type opioid receptor (Cavia porcellus, UniProt P97266); test: Displacement of [3H]DAMGO from mu opioid receptor in guinea pig forebrain
Sequence of Mu-type opioid receptor (P97266 whole entry): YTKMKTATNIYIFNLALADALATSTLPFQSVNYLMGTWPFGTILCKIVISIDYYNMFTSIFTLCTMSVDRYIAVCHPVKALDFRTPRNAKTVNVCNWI

Cavia porcellus = organism: Cavia porcellus; test: Selectivity ratio of Ki for delta opioid receptor in guinea pig forebrain to Ki for kappa opioid receptor in guinea pig cerebellum; type: tissue-based
Mus musculus = test: Antinociceptive activity in sc dosed mouse assessed as effect on acetic acid-induced writhing; type: functional

Sequence of Opioid receptor (mu and kappa) (Cavia porcellus) (P41144 whole entry, looked up): as the sequence (P41144 whole entry) above
Sequence of Opioid receptor (mu and kappa) (Cavia porcellus) (P97266 whole entry, looked up): as the sequence (P97266 whole entry) above

SMILES	Ratio Ki [1]	Ki [2]	Ki [3]	Ki (Mu-type opioid receptor)	Ratio Ki (Cavia porcellus)	IC50 [3]	Activity (Mus musculus)	ED50 (Mus musculus)
Cc1occc1C(=O)/C=C/c1cc2c(n1C)[C@@H]1Oc3c(O)ccc4c3[C@@]13CCN(CC1CC1)[C@H](C4)[C@]3(O)C2	5.4	1.15 nM	1.47 nM	6.2 nM	1.3	–	–	–
CCC/C=C/c1cc2c(n1C)[C@@H]1Oc3c(O)ccc4c3[C@@]13CCN(CC1CC1)[C@H](C4)[C@]3(O)C2	0.8	7.38 nM	6.58 nM	5.85 nM	0.9	–	–	–
Cn1c(/C=C/C(=O)c2ccccc2)cc2c1[C@@H]1Oc3c(O)ccc4c3[C@@]13CCN(CC1CC1)[C@H](C4)[C@]3(O)C2	8.1	0.467 nM	3.74 nM	3.76 nM	8	–	–	–
Cn1c(/C=C/c2ccccc2)cc2c1[C@@H]1Oc3c(O)ccc4c3[C@@]13CCN(CC1CC1)[C@H](C4)[C@]3(O)C2	0.5	3.79 nM	–	1.76 nM	–	> 1000 nM	–	–
Cn1c(/C=C/C(=O)Cc2ccccc2)cc2c1[C@@H]1Oc3c(O)ccc4c3[C@@]13CCN(CC1CC1)[C@H](C4)[C@]3(O)C2	5.8	1.13 nM	2.08 nM	6.58 nM	1.8	–	–	–
CCCCCC(=O)/C=C/c1cc2c(n1C)[C@@H]1Oc3c(O)ccc4c3[C@@]13CCN(CC1CC1)[C@H](C4)[C@]3(O)C2	12	1.24 nM	3.55 nM	15 nM	2.9	–	Dose-dependent effect	5.87 mg/kg
Cn1c(CCC(=O)CCc2ccccc2)cc2c1[C@@H]1Oc3c(O)ccc4c3[C@@]13CCN(CC1CC1)[C@H](C4)[C@]3(O)C2	1.6	0.342 nM	1.59 nM	0.548 nM	4.6	–	–	–
Cn1c(/C=C/C(=O)CCc2ccccc2)cc2c1[C@@H]1Oc3c(O)ccc4c3[C@@]13CCN(CC1CC1)[C@H](C4)[C@]3(O)C2	7.4	0.935 nM	1.73 nM	6.89 nM	1.9	–	–	–
